How the values were obtained:
Type in all cases: in vivo
Scirpus juncoides [1] = experiment: Herbicidal effect on paddy field weeds of post-emergence stage (Post), Test Example 2; conditions: one-leaf stage, 1000 g/ha as active ingredient, examined after 21 days
Excerpt: (§1) Criteria for herbicidal efficacy (growth inhibiting degree) and phytotoxicity. • 5 . . . 100% herbicidal effect, phytotoxicity. • 4 . . . 90%-99% herbicidal effect, phytotoxicity. • 3 . . . 70%-89% herbicidal effect, phytotoxicity. • 2 . . . 40%-69% herbicidal effect, phytotoxicity. • 1 . . . 1%-39% herbicidal effect, phytotoxicity. • 0 . . . 0% herbicidal effect, phytotoxicity.
(§2) 75 cm^2 plastic pots were filled with the soil (clay loam). Seeds of Scirpus juncoides and Echinochloa crus-galli, paddy weeds, were planted, and they were covered with 75 cm^3 of soil mixed with seeds of Lindernia procumbens and then filled with water depth of 5 cm and they were brought up in a greenhouse. When the test plants were at one-leaf stage, predetermined effective dosage (1000 g/ha as an active ingredient) of formulations comprising a compound of the present invention as an active ingredient was applied to the pot water. Then, they were brought up in a greenhouse and the herbicidal efficacy was examined after 21 days from the treatment by comparing with the result of an untreated group according to the criteria of Test Example 1. In the table, “-” means that the test was not performed.

Lindernia procumbens [2] = experiment: as above; conditions: one-leaf stage, 1000 g/ha as active ingredient, examined after 21 days
Excerpt: as §1, §2

Scirpus juncoides [3] = experiment: Herbicidal efficacy on paddy field weeds of pre-emergence stage (Pre), Test Example 1; conditions: 1000 g/ha as active ingredient, examined after 21 days
Experimental: (§3) 75 cm^2 plastic pots were filled with the soil (clay loam). Seeds of Scirpus juncoides, a paddy weed, were planted, and they were covered with 75 cm^3 of soil mixed with seeds of Lindernia procumbens and then filled with water depth of 5 cm. Next day, predetermined effective dosage (1000 g/ha as an active ingredient) of formulations comprising a compound of the present invention as an active ingredient which were prepared following Formulation Examples 1 to 4 was diluted with water and applied dropwise to the surface of the water. Then, they were brought up in a greenhouse and the herbicidal effect was examined after 21 days from the treatment by comparing with the result of an untreated group according to the following criteria. In the table, “-” means that the test was not performed.
as §1

Lindernia procumbens [4] = experiment: as above; conditions: 1000 g/ha as active ingredient, examined after 21 days
Experimental: as §3, §1

Row | Compound | Scirpus juncoides post (herbicidal effect) (Scirpus juncoides [1]) | Lindernia procumbens post (herbicidal effect) (Lindernia procumbens [2]) | Scirpus juncoides pre (herbicidal effect) (Scirpus juncoides [3]) | Lindernia procumbens pre (herbicidal effect) (Lindernia procumbens [4])
1 | O=C1OC(c2ccccc2)(C(F)(F)F)CCN1Cc1ccccc1NS(=O)(=O)C(F)(F)F (stereo not drawn) [Compound 1-228] | 4 (90%-99% herbicidal effect, phytotoxicity) | 5 (100% herbicidal effect, phytotoxicity) | 5 (100% herbicidal effect, phytotoxicity) | 5 (100% herbicidal effect, phytotoxicity)
2 | CCCCOC(=O)N(c1ccccc1CN1CCC(CC)(C(F)(F)F)OC1=O)S(=O)(=O)C(F)(F)F (stereo not drawn) [Compound 1-95] | 4 (90%-99% herbicidal effect, phytotoxicity) | 5 (100% herbicidal effect, phytotoxicity) | 5 (100% herbicidal effect, phytotoxicity) | 5 (100% herbicidal effect, phytotoxicity)
3 | CC1(c2ccccc2C(F)(F)F)CCN(Cc2ccccc2NS(=O)(=O)C(F)(F)F)C(=O)O1 (stereo not drawn) [Compound 1-393] | 4 (90%-99% herbicidal effect, phytotoxicity) | 5 (100% herbicidal effect, phytotoxicity) | 5 (100% herbicidal effect, phytotoxicity) | 5 (100% herbicidal effect, phytotoxicity)
4 | CC(C)COC(=O)N(c1ccccc1CN1CCC(c2ccccc2F)OC1=O)S(=O)(=O)C(F)(F)F (stereo not drawn) [Compound 1-255] |  | 5 (100% herbicidal effect, phytotoxicity) |  | 5 (100% herbicidal effect, phytotoxicity)
5 | CN(c1ccccc1CN1CCC(c2ccccc2C(F)(F)F)OC1=O)S(=O)(=O)C(F)(F)F (stereo not drawn) [Compound 1-301] |  | 5 (100% herbicidal effect, phytotoxicity) |  | 5 (100% herbicidal effect, phytotoxicity)
6 | Cc1ccccc1C1CCN(Cc2ccccc2N(C)S(=O)(=O)C(F)(F)F)C(=O)O1 (stereo not drawn) [Compound 1-290] | 4 (90%-99% herbicidal effect, phytotoxicity) | 5 (100% herbicidal effect, phytotoxicity) |  | 5 (100% herbicidal effect, phytotoxicity)
7 | CCOCN(c1ccccc1CN1CCC(c2c(Cl)cccc2Cl)OC1=O)S(=O)(=O)C(F)(F)F (stereo not drawn) [Compound 1-281] | 4 (90%-99% herbicidal effect, phytotoxicity) | 5 (100% herbicidal effect, phytotoxicity) |  | 5 (100% herbicidal effect, phytotoxicity)
8 | CC(C)COC(=O)N(c1ccccc1CN1CCC(C2CC2)(C2CC2)OC1=O)S(=O)(=O)C(F)(F)F [Compound 1-154] |  |  |  | 4 (90%-99% herbicidal effect, phytotoxicity)
9 | CN(c1ccccc1CN1CCC(c2ccccc2)(c2ccccc2)OC1=O)S(=O)(=O)C(F)(F)F [Compound 1-224] |  |  |  | 4 (90%-99% herbicidal effect, phytotoxicity)
10 | O=C1OCCCN1Cc1ccccc1NS(=O)(=O)C(F)(F)F [Compound No. 1-1, 3-[2-(trifluoromethanesulfonylamino)benzyl]-[1,3]-oxazinan-2-one] | 4 (90%-99% herbicidal effect, phytotoxicity) |  | 4 (90%-99% herbicidal effect, phytotoxicity) | 4 (90%-99% herbicidal effect, phytotoxicity)
11 | O=C1OC(c2c(F)cccc2F)CCN1Cc1ccccc1NS(=O)(=O)C(F)(F)F (stereo not drawn) [Compound 1-349] |  | 5 (100% herbicidal effect, phytotoxicity) | 5 (100% herbicidal effect, phytotoxicity) | 5 (100% herbicidal effect, phytotoxicity)
12 | CN(c1ccccc1CN1CCC(c2ccccc2F)OC1=O)S(=O)(=O)C(F)(F)F (stereo not drawn) [Compound 1-257] |  | 5 (100% herbicidal effect, phytotoxicity) | 4 (90%-99% herbicidal effect, phytotoxicity) | 5 (100% herbicidal effect, phytotoxicity)
13 | CCC1(c2ccccc2)CCN(Cc2ccccc2N(C)S(=O)(=O)C(F)(F)F)C(=O)O1 (stereo not drawn) [Compound 1-323] |  | 5 (100% herbicidal effect, phytotoxicity) |  | 5 (100% herbicidal effect, phytotoxicity)
14 | CC(C)COC(=O)N(c1ccccc1CN1CCC(c2ccccc2)OC1=O)S(=O)(=O)C(F)(F)F (stereo not drawn) [Compound 1-244] |  | 5 (100% herbicidal effect, phytotoxicity) |  | 5 (100% herbicidal effect, phytotoxicity)
15 | CCOCN(c1ccccc1CN1CC(C)(C)C(c2ccccc2)OC1=O)S(=O)(=O)C(F)(F)F (stereo not drawn) [Compound 1-270] | 4 (90%-99% herbicidal effect, phytotoxicity) | 5 (100% herbicidal effect, phytotoxicity) |  | 5 (100% herbicidal effect, phytotoxicity)
16 | CC1CCN(Cc2ccccc2NS(=O)(=O)C(F)(F)F)C(=O)OC1 (stereo not drawn) [Compound No. 2-23, 6-methyl-3-[2-(trifluoromethanesulfonylamino)benzyl]-[1,3]-oxazepan-2-one] | 4 (90%-99% herbicidal effect, phytotoxicity) |  | 4 (90%-99% herbicidal effect, phytotoxicity) | 4 (90%-99% herbicidal effect, phytotoxicity)
17 | CN(c1ccccc1CN1CCC(c2ccccc2Cl)OC1=O)S(=O)(=O)C(F)(F)F (stereo not drawn) [Compound 1-312] |  | 5 (100% herbicidal effect, phytotoxicity) |  | 5 (100% herbicidal effect, phytotoxicity)
18 | CN(c1ccccc1CN1CCC(C)(c2ccccc2)OC1=O)S(=O)(=O)C(F)(F)F (stereo not drawn) [Compound 1-167] |  |  | 4 (90%-99% herbicidal effect, phytotoxicity) | 
19 | CC(C)COC(=O)N(c1ccccc1CN1CCC(C)(c2ccccc2)OC1=O)S(=O)(=O)C(F)(F)F (stereo not drawn) [Compound 1-165] | 4 (90%-99% herbicidal effect, phytotoxicity) |  | 4 (90%-99% herbicidal effect, phytotoxicity) | 4 (90%-99% herbicidal effect, phytotoxicity)
20 | CN(c1ccccc1CN1CCC(c2c(Cl)cccc2Cl)OC1=O)S(=O)(=O)C(F)(F)F (stereo not drawn) [Compound 1-279] | 4 (90%-99% herbicidal effect, phytotoxicity) | 5 (100% herbicidal effect, phytotoxicity) |  | 5 (100% herbicidal effect, phytotoxicity)
21 | CCOCN(c1ccccc1CN1CCC(c2ccccc2Cl)OC1=O)S(=O)(=O)C(F)(F)F (stereo not drawn) [Compound 1-314] |  | 5 (100% herbicidal effect, phytotoxicity) | 4 (90%-99% herbicidal effect, phytotoxicity) | 5 (100% herbicidal effect, phytotoxicity)
22 | CN(c1ccccc1CN1CCC(C)(C)OC1=O)S(=O)(=O)C(F)(F)F [Compound 1-54] | 4 (90%-99% herbicidal effect, phytotoxicity) |  | 4 (90%-99% herbicidal effect, phytotoxicity) | 
23 | CCOCN(c1ccccc1CN1CCC(c2c(C)cccc2C)OC1=O)S(=O)(=O)C(F)(F)F (stereo not drawn) [Compound 1-369] | 4 (90%-99% herbicidal effect, phytotoxicity) | 5 (100% herbicidal effect, phytotoxicity) |  | 5 (100% herbicidal effect, phytotoxicity)
24 | CN(c1ccccc1CN1CCC(c2ccccc2)OC1=O)S(=O)(=O)C(F)(F)F (stereo not drawn) [Compound 1-246] |  |  |  | 5 (100% herbicidal effect, phytotoxicity)
25 | CN(c1ccccc1CN1CCC2(CCCC2)OC1=O)S(=O)(=O)C(F)(F)F [Compound 1-145] | 4 (90%-99% herbicidal effect, phytotoxicity) |  | 4 (90%-99% herbicidal effect, phytotoxicity) | 

— patent US8048825B2, “Haloalkylsulfonanilide derivatives or salt thereof, herbicide comprising the derivatives as active ingredient, and use of the herbicide” (Nihon Nohyaku Co., Ltd., priority 2006, dated 2011)
